Values of other authors, collected in patent publication US20180028452A1, “ANTIEMETIC EXTENDED RELEASE SOLID DOSAGE FORMS” (RedHill Biopharma Ltd., priority 2013, published 2018).
Structures can show the parent of a compound that is named as a salt.

Columns and labels:
[1] = water and normal saline
[2] = scale of Pliska et al., J. Chromatog. 216, 79, 1981

| solubility [1] | hydropathy value (relative hydrophobic character) [2] | SMILES |
| --- | --- | --- |
| soluble in water and normal saline |  | Cc1nccn1CC1CCc2c(c3ccccc3n2C)C1=O (racemic) [Ondansetron HCl dihydrate, Ondansetron hydrochloride] |
|  | −2.15 | N[C@@H](CC(=O)O)C(=O)O [aspartic acid] |
|  | 0 | NCC(=O)O [glycine] |
|  | 1.83 | CC[C@H](C)[C@H](N)C(=O)O [iso-leucine] |
